In the NIST ThermoML archive (doi:10.1021/je800658v) one finds activity coefficient data, which are given here for 38 compounds.

The data set can be described thus: activity coefficient (dimensionless); of the first substance listed, at infinite dilution; xn = mol fraction of the nth substance listed. The settings on record: Liquid, x1 = 0.
Setting [1] is: 303.35 K, inverse gas chromatography.
The mark [2] stands for this setting: 312.55 K, inverse gas chromatography.
The mark [3] stands for this setting: 322.55 K, inverse gas chromatography.
[4] abbreviates: 332.55 K, inverse gas chromatography.

Numbers after ± are expanded uncertainties.

As to `Cc1ccccc1C` [1,2-dimethylbenzene] + CCCCn1cc[n+](C)c1.F[B-](F)(F)F, the activity coefficient runs as follows: under setting [1], 6.53 ± 0.39; under setting [2], 5.55 ± 0.33; under setting [3], 5.83 ± 0.35; under setting [4], 4.77 ± 0.29.
For `Cc1cccc(C)c1` [1,3-dimethylbenzene] + CCCCn1cc[n+](C)c1.F[B-](F)(F)F, in that order: 7.81 ± 0.47, 7.4 ± 0.44, 6.89 ± 0.41 and 6.56 ± 0.39.
For `Cc1ccc(C)cc1` [1,4-dimethylbenzene] + CCCCn1cc[n+](C)c1.F[B-](F)(F)F, in that order: 7.36 ± 0.44, 6.68 ± 0.4, 6.71 ± 0.4 and 6.26 ± 0.38.
For `C1COCCO1` [1,4-dioxane] + CCCCn1cc[n+](C)c1.F[B-](F)(F)F, in that order: 1.26 ± 0.08, 1.24 ± 0.07, 1.28 ± 0.08 and 1.22 ± 0.07.
For `C#CCCCCC` [1-heptyne] + CCCCn1cc[n+](C)c1.F[B-](F)(F)F, the activity coefficient runs as follows: under setting [1], 13.2 ± 0.79; under setting [2], 12.5 ± 0.75; under setting [3], 11.9 ± 0.72; under setting [4], 11.7 ± 0.7.
Regarding `C#CCCCC` [1-hexyne] + CCCCn1cc[n+](C)c1.F[B-](F)(F)F, the activity coefficient was 8.29 ± 0.5 under setting [1], 7.53 ± 0.45 under setting [2], 7.47 ± 0.45 under setting [3] and 6.82 ± 0.41 under setting [4].
For `CCC[N+](=O)[O-]` [1-nitropropane] + CCCCn1cc[n+](C)c1.F[B-](F)(F)F, in that order: 1.54 ± 0.09, 1.46 ± 0.09, 1.46 ± 0.09 and 1.5 ± 0.09.
For `OCC(F)(F)F` [2,2,2-trifluoroethanol] + CCCCn1cc[n+](C)c1.F[B-](F)(F)F, in that order: 0.36 ± 0.02, 0.33 ± 0.02, 0.32 ± 0.02 and 0.3 ± 0.02.
For `CC(C)CC(C)(C)C` [2,2,4-trimethylpentane] + CCCCn1cc[n+](C)c1.F[B-](F)(F)F, the activity coefficient is, setting by setting: under setting [1], 321 ± 19; under setting [2], 231 ± 14; under setting [3], 198 ± 12; under setting [4], 272 ± 16.
For `CC(C)CO` [2-methyl-1-propanol] + CCCCn1cc[n+](C)c1.F[B-](F)(F)F, in that order: 4.17 ± 0.25, 3.99 ± 0.24, 3.28 ± 0.2 and 2.84 ± 0.17.
For `CCC(C)CC` [3-methylpentane] + CCCCn1cc[n+](C)c1.F[B-](F)(F)F, in that order: 126 ± 7.6, 94.3 ± 5.7, 82.9 ± 5 and 152 ± 9.2.
In the case of `CC#N` [acetonitrile] + CCCCn1cc[n+](C)c1.F[B-](F)(F)F, the activity coefficient by setting is: under setting [1], 0.65 ± 0.04; under setting [2], 0.63 ± 0.04; under setting [3], 0.64 ± 0.04; under setting [4], 0.61 ± 0.04.
Turning to `c1ccccc1` [benzene] + CCCCn1cc[n+](C)c1.F[B-](F)(F)F, the activity coefficient is 2.2 ± 0.13 under setting [1], 2.17 ± 0.13 under setting [2], 2.25 ± 0.14 under setting [3] and 2.16 ± 0.13 under setting [4].
For the compound `CCCCO` [butan-1-ol] + CCCCn1cc[n+](C)c1.F[B-](F)(F)F, the activity coefficient turned out to be 4.74 ± 0.29 under setting [1], 3.82 ± 0.23 under setting [2], 3.33 ± 0.2 under setting [3] and 2.69 ± 0.16 under setting [4].
For `CCCC=O` [butanal] + CCCCn1cc[n+](C)c1.F[B-](F)(F)F, in that order: 2.19 ± 0.13, 2.13 ± 0.13, 2.15 ± 0.13 and 2.06 ± 0.12.
For `CCC(C)=O` [butanone] + CCCCn1cc[n+](C)c1.F[B-](F)(F)F, in that order: 1.5 ± 0.09, 1.48 ± 0.09, 1.44 ± 0.09 and 1.25 ± 0.08.
Take `C1CCCCCC1` [cycloheptane] + CCCCn1cc[n+](C)c1.F[B-](F)(F)F: the activity coefficient is, setting by setting: under setting [1], 78.7 ± 4.7; under setting [2], 98.2 ± 5.9; under setting [3], 131 ± 7.9; under setting [4], 167 ± 10.
For `C1CCCCC1` [cyclohexane] + CCCCn1cc[n+](C)c1.F[B-](F)(F)F, in that order: 62.5 ± 3.8, 48.4 ± 2.9, 42.7 ± 2.6 and 35.3 ± 2.1.
For `ClCCl` [dichloromethane] + CCCCn1cc[n+](C)c1.F[B-](F)(F)F, the activity coefficient was 0.69 ± 0.04 under setting [1], 0.72 ± 0.04 under setting [2], 0.79 ± 0.05 under setting [3] and 0.79 ± 0.05 under setting [4].
For the compound `CCOCC` [diethyl ether] + CCCCn1cc[n+](C)c1.F[B-](F)(F)F, the activity coefficient came out at 10.2 ± 0.61 under setting [1], 9.39 ± 0.56 under setting [2], 8.18 ± 0.49 under setting [3] and 7.42 ± 0.45 under setting [4].
For `CC(C)OC(C)C` [diisopropyl ether] + CCCCn1cc[n+](C)c1.F[B-](F)(F)F, in that order: 30.7 ± 1.8, 33.5 ± 2, 26.9 ± 1.6 and 24.3 ± 1.5.
For `CCO` [ethanol] + CCCCn1cc[n+](C)c1.F[B-](F)(F)F, in that order: 2.15 ± 0.13, 1.91 ± 0.11, 1.7 ± 0.1 and 1.53 ± 0.09.
For `CCc1ccccc1` [ethylbenzene] + CCCCn1cc[n+](C)c1.F[B-](F)(F)F, in that order: 7.25 ± 0.44, 6.73 ± 0.4, 6.85 ± 0.41 and 6.51 ± 0.39.
`CCCCCCC` [heptane] + CCCCn1cc[n+](C)c1.F[B-](F)(F)F: the activity coefficient under setting [1] is 259 ± 16, the activity coefficient under setting [2] came to 250 ± 15, the activity coefficient under setting [3] was found to be 216 ± 13 and the activity coefficient under setting [4] was found to be 142 ± 8.7.
For `C=CCCCC` [hex-1-ene] + CCCCn1cc[n+](C)c1.F[B-](F)(F)F, in that order: 48 ± 2.9, 39.3 ± 2.4, 36.3 ± 2.2 and 38.8 ± 2.3.
For the compound `CCCCCC` [hexane] + CCCCn1cc[n+](C)c1.F[B-](F)(F)F, the activity coefficient came to 133 ± 9.1 (303.35 K, Chromatography); 130 ± 9 (312.55 K, Chromatography); 97.4 ± 6.7 (322.55 K, Chromatography); 74.2 ± 5.1 (332.55 K, Chromatography).
With `C=O` [methanal] + CCCCn1cc[n+](C)c1.F[B-](F)(F)F, the activity coefficient by setting is: under setting [1], 0.22 ± 0.01; under setting [2], 0.23 ± 0.01; under setting [3], 0.26 ± 0.02; under setting [4], 0.25 ± 0.02.
For `CO` [methanol] + CCCCn1cc[n+](C)c1.F[B-](F)(F)F, in that order: 1.22 ± 0.07, 1.22 ± 0.07, 1.22 ± 0.07 and 1.18 ± 0.07.
For `CC1CCCCC1` [methylcyclohexane] + CCCCn1cc[n+](C)c1.F[B-](F)(F)F, in that order: 98.3 ± 5.9, 82.7 ± 5, 64.2 ± 3.9 and 57.1 ± 3.4.
Regarding `CC1CCCC1` [methylcyclopentane] + CCCCn1cc[n+](C)c1.F[B-](F)(F)F, the activity coefficient by setting is: under setting [1], 62.2 ± 3.7; under setting [2], 53.5 ± 3.2; under setting [3], 42.8 ± 2.6; under setting [4], 55.4 ± 3.3.
`C[N+](=O)[O-]` [nitromethane] + CCCCn1cc[n+](C)c1.F[B-](F)(F)F: the activity coefficient was 0.59 ± 0.04 under setting [1], 0.56 ± 0.03 under setting [2], 0.56 ± 0.03 under setting [3] and 0.56 ± 0.03 under setting [4].
Take `CCCCCCCCC` [nonane] + CCCCn1cc[n+](C)c1.F[B-](F)(F)F: the activity coefficient is, setting by setting: under setting [1], 956 ± 57; under setting [2], 793 ± 48; under setting [3], 612 ± 37; under setting [4], 464 ± 28.
Take `CCCCCCCC` [octane] + CCCCn1cc[n+](C)c1.F[B-](F)(F)F: the activity coefficient under setting [1] was determined as 425 ± 26, the activity coefficient under setting [2] stood at 368 ± 22, the activity coefficient under setting [3] worked out at 333 ± 20 and the activity coefficient under setting [4] was found to be 298 ± 18.
For `CCCC(C)=O` [pentan-2-one] + CCCCn1cc[n+](C)c1.F[B-](F)(F)F, in that order: 2.6 ± 0.16, 2.6 ± 0.16, 2.66 ± 0.16 and 2.53 ± 0.15.
Regarding `CCC(=O)CC` [pentan-3-one] + CCCCn1cc[n+](C)c1.F[B-](F)(F)F, the activity coefficient is, setting by setting: under setting [1], 2.63 ± 0.16; under setting [2], 2.57 ± 0.15; under setting [3], 2.66 ± 0.16; under setting [4], 2.52 ± 0.15.
For `CCCO` [propan-1-ol] + CCCCn1cc[n+](C)c1.F[B-](F)(F)F, in that order: 3.12 ± 0.19, 2.7 ± 0.16, 2.43 ± 0.15 and 2.14 ± 0.13.
For `CC(C)O` [propan-2-ol] + CCCCn1cc[n+](C)c1.F[B-](F)(F)F, in that order: 3.2 ± 0.19, 2.76 ± 0.17, 2.5 ± 0.15 and 2.15 ± 0.13.
For `CCC=O` [propanal] + CCCCn1cc[n+](C)c1.F[B-](F)(F)F, in that order: 1.38 ± 0.08, 1.33 ± 0.08, 1.29 ± 0.08 and 1.21 ± 0.07.
